US6855730B2, “3-methylidenyl-2-indolinone modulators of protein kinase” (Sugen, Inc., priority 1998, dated 2005)

Assays:
[1] = target: T1, chimeric receptor having the extra-cellular domain of EGF-R and the intra-cellular domain of Her2 (Homo sapiens, UniProt P04626); assay: EGF-induced Her2-driven BrdU incorporation; format: cell-based; conditions: read-out: BrdU HER 2 driven IC50
T1 construct: fused on or other part: the same chimera
Procedure: The cellular/catalytic assays described herein are performed in an ELISA format. The general procedure is as follows: a compound is introduced to cells expressing the test kinase, either naturally or recombinantly, for a selected period of time after which, if the test kinase is a receptor, a ligand known to activate the receptor is added. The cells are lysed and the lysate is transferred to the wells of an ELISA plate previously coated with a specific antibody recognizing the substrate of the enzymatic phosphorylation reaction. Non-substrate components of the cell lysate are washed away and the amount of phosphorylation on the substrate is detected with an antibody specifically recognizing phosphotyrosine compared with control cells that were not contacted with a test compound. The cellular/biologic assays described herein measure the amount of DNA made in response to activation of a test kinase, which is a general measure of a proliferative response. The general procedure for this assay is as follows: a compound is introduced to cells expressing the test kinase, either naturally or recombinantly, for a selected period of time after which, if the test kinase is a receptor, a ligand known to activate the receptor is added. After incubation at least overnight, a DNA labeling reagent such as Bromodeoxyuridine (BrdU) or 3H-thymidine is added. The amount of labeled DNA is detected with either an anti-BrdU antibody or by measuring radioactivity and is compared to control cells not contacted with a test compound.
EGF-Induced Her2-Driven BrdU Incorporation
Protocol • (1) Cells-are seeded at 8000 cells/well in DMEM, 10% CS, 2mM Gln in a 96-well plate. Cells are incubated overnight at 37° C. in 5% CO2. • (2) After 24 hours, the cells are washed with PBS, and then are serum starved in serum free medium (0% CS DMEM with 0.1% BSA) for 24 hours. • (3) On day 3, ligand (EGF=2 nM, prepared in DMEM with 0.1% BSA) and test compounds are added to the cells simultaneously. The negative control wells receive serum free DMEM with 0.1% BSA only, the positive control cells receive the ligand (EGF) but no test compound. Test compounds are prepared in serum free DMEM with ligand in a 96 well plate, and serially diluted for 7 test concentrations. • (4) After 20 hours of ligand activation, diluted BrdU labeling reagent (1:100 in DMEM, 0.1% BSA) is added and the cells are incubated with BrdU (final concentration=10 μM) for 1.5 hours. • (5) After incubation with labeling reagent, the medium is removed by decanting and tapping the inverted plate on a paper towel. FixDenat solution is added (50 μl/well) and the plates are incubated at room temperature for 45 minutes on a plate shaker. • (6) The FixDenat solution is thoroughly removed by decanting and tapping the inverted plate on a paper towel. Milk is added (5% dehydrated milk in PBS, 200 μ/well) as a blocking solution and the plate is incubated for 30 minutes at room temperature on a plate shaker. • (7) The blocking solution is removed by decanting and the wells are washed once with PBS. Anti-BrdU-POD solution (1:100 dilution in PBS, 1% BSA) is added (100 μl/well) and the plate is incubated for 90 minutes at room temperature on a plate shaker. • (8) The antibody conjugate is thoroughly removed by decanting and rinsing the wells 5 times with PBS, and the plate is dried by inverting and tapping on a paper towel. • (9) TMB substrate solution is added (100 μl/well) and incubated for 20 minutes at room temperature on a plate shaker until color development is sufficient for photometric detection. • (10) The absorbance of the samples are measured at 410 nm (in “dual wavelength” mode with a filter reading at 490 nm, as a reference wavelength) on a Dynatech ELISA plate reader.

T1 sequence (P04626 676-1255 limits assumed, change not shown): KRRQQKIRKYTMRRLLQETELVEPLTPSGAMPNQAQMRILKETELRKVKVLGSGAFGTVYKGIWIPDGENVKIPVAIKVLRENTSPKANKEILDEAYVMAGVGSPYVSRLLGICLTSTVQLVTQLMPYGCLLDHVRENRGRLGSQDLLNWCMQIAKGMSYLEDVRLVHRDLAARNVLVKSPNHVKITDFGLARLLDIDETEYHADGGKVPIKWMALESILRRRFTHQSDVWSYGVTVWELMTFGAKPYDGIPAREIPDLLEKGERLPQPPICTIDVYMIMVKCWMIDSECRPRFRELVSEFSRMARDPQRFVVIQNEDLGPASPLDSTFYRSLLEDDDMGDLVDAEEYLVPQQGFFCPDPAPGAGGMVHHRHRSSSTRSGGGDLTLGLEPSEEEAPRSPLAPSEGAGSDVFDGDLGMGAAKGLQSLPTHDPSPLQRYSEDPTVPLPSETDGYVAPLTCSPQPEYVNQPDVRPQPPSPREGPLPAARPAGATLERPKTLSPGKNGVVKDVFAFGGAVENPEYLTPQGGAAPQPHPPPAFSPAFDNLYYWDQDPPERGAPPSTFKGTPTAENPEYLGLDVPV

Row | melting point [°C] | IC50 [1] [µM] | SMILES
1 | 263 to 266 |  | COc1ccc2c(c1)NC(=O)/C2=C\c1[nH]c2c(c1CCC(=O)O)CCCC2 [Example 196, 3-[2-(6-Methoxy-2-oxo-1,2-dihydroindol-3-ylidenemethyl)-4,5,6,7-tetrahydro-1H-indol-3-yl]-propionic acid]
2 |  | 8.7 | COc1c(C(C)C)cc(/C=C2/C(=O)Nc3ccccc32)cc1C(C)C [Example 1, 3-(3,5-Diisopropyl-4-methoxybenzylidene)-1,3-dihydroindol-2-one]
